Laboratory results: publication PMC3356383, “Efficacious Intermittent Dosing of a Novel JAK2 Inhibitor in Mouse Models of Polycythemia Vera” (PLoS ONE, 2012)
Marks after values point to notes of the source that are not given here.

How the values were obtained:
[1] = tested on: JAK2V617F-Luciferase expressing cells; assay: Bone marrow transplant mice expressing JAK2V617F-Luciferase (PV model); format: in vivo
Experimental: Production of retrovirus containing cDNA of JAK2 V617F fused to luciferase 2 was performed as described previously as was transplantation of bone marrow cells infected with virus into irradiated mice.
Imaging of mice expressing JAK2 V617F-Luciferase was conducted as described previously.
Measurement of the level of JAK2 V617F allele in the tissues of transplanted mice was done as described previously.
Cells were stained in PBS, 0.5% BSA with antibodies for 15 min on ice. Stained cells were acquired on a 4-laser LSR-II (BD Biosciences) and data analyzed using FlowJo software (Treestar). Dead cells were labeled with the blue fluorescent LIVE/DEAD reactive dye (Invitrogen) and excluded from the analysis.

[2] = tested on: pSTAT5 in BaF3 (JAK2 WT) cells; assay: Cell pSTAT5 AlphaScreen SureFire assay; format: cell-based; details: Mus musculus, 1 hour, EPO-stimulated
Experimental: (§1) Measurement of pSTAT5 in cells was performed essentially as described previously using an AlphaScreen™ SureFire™ (Perkin Elmer) assay. BaF3 (JAK2 WT), BaF3 (JAK2 V617F), and CTLL-2 cells were exposed to compound for 60 min prior to lysis and subsequent detection of pSTAT5 via AlphaScreen technology. Prior to compound treatment, BaF3 (JAK2 WT) and CTLL-2 cells were cytokine starved overnight, with EPO or IL-2 added 15 minutes prior to lysis, respectively.

[3] = tested on: pSTAT5 in CTLL-2 cells (JAK1 and JAK3 dependent); assay: Cell pSTAT5 AlphaScreen SureFire assay; format: cell-based
Experimental: as §1

[4] = tested on: pSTAT5 in BaF3 (JAK2 V617F) cells; assay: Cell pSTAT5 AlphaScreen SureFire assay; format: cell-based; details: Mus musculus, 1 hour
Experimental: as §1

BaF3 (JAK2 WT) cells = assay: Cell proliferation, ViaLight assay; format: cell-based; details: Mus musculus, 48 hour, EPO-stimulated
Experimental: (§2) Cell proliferation was measured by ViaLight (Lonza Group Ltd) assay as follows. Cells (1000–2000) were seeded into 384-well plates and incubated 16 hours @ 37°C, 5% CO2. […] Cells were lysed and ATP detected as per the manufacturer protocol.

H2122 cells = assay: Cell proliferation, ViaLight assay; format: cell-based; details: Homo sapiens, NCI-H2122, 48 hour, epithelial lung cancer cell line
Experimental: as §2

BaF3 (JAK2 V617F) cells = assay: Cell proliferation, ViaLight assay; format: cell-based; details: Mus musculus, 48 hour
Experimental: as §2

CTLL-2 cells = assay: Cell proliferation, ViaLight assay; format: cell-based
Experimental: as §2

[5] = tested on: peripheral blood cell populations; assay: Cell populations in peripheral blood of normal mice; format: in vivo, C57BL/6 mice; details: 54 mpk
Source text: JAK2 and its family members JAK1 and JAK3 are known to signal downstream of cytokines that play essential roles in the development of lymphoid cell populations. To examine more thoroughly the effects of JAK2 inhibition on lymphoid cells, we analyzed wild-type (C57BL/6) mice treated with 54 mpk MRLB-11055 for 3 days, 6 days or up to 5 cycles of 3 days (“on”) followed by a 4 day holiday (“off”).
Supplementary file pone.0037207.s005.doc: Table S3 Effect of MRLB-11055 on Cell Populations in Peripheral Blood of Normal Mice. Cell counts measured by Advia. Cycles refer to 3 days of treatment followed by a 4 day holiday. *p<0.01 and **p<0.001 in Student T test when comparing vehicle with treatment. HCT, hematocrit; RBC, red blood cells; HGB, hemoglobin; WBC, white blood cells. (DOC) Click here for additional data file.

[6] = 2 cycles (3 days treatment, 4 day holiday)
[7] = 5 cycles (3 days treatment, 4 day holiday)

What does the source list for NC(=O)c1cnc(N[C@H](C2CC2)C(F)(F)F)c2c1[nH]c1cc(-c3cnc(N)nc3)ccc12 [MRLB-11055]?
Reduction in spleen BLI over first 3 days of treatment ([1]; 54 mpk oral once daily for 3 days, cycle 1): ~20 fold; Spleen BLI, splenic CD71+TER119+ cells and V617F allele burden in peripheral blood ([1]; 54 mpk oral once daily, Day 3, no further benefit out to Day 7): Significant reductions in all three endpoints; Spleen weight at end of second holiday period ([1]; 54 mpk, 2 cycles): normalization in spleen weight; Hematocrit after 2 cycles ([1]; 54 mpk, 2 cycles of 3 days on, 4 days off, decreased from 53%, vehicle 53% to 56%): 42%; CD71+TER119+ cells in spleen relative to vehicle controls ([1]; 54 mpk, end of second holiday period): significant reduction; Level of pSTAT5 in spleens of JAK2V617F-Luciferase mice ([1]; 1 hour post-dose): significantly inhibited; Increase in spleen BLI over the 4 day holiday ([1]; 4 days after 3 days of 54 mpk, cycle 1): ~4 fold; Spleen BLI after holiday, fold less than pre-treatment levels ([1]; end of cycle 1 (3 days on, 4 days off), 54 mpk): about 5 fold; IC50 [2]: 23 nM; Times less potent on IL-2 stimulated CTLL-2 pSTAT5 than on JAK2V617F-mediated pSTAT5 in BaF3 cells [3]: 6 times; IC50 ([3]; Mus musculus, CTLL-2, 1 hour, IL2-stimulated, JAK1 and JAK3 dependent): 66 nM; IC50 [4]: 11 nM; IC50 (BaF3 (JAK2 WT) cells): 14 nM; IC50 (H2122 cells): 1900 nM; IC50 (BaF3 (JAK2 V617F) cells): 29 nM; Fold more potent against IL-2-dependent CTLL cells than JAK2V617F BaF3 cells in proliferation assays (CTLL-2 cells): 2 fold; IC50 (CTLL-2 cells; Mus musculus, CTLL-2, 48 hour, Vialight): 13 nM; Baso-phils [5, 6]: 0.03 ± 0.01 * x 10^3/µl; Eosino-phils [5, 6]: 0.14 ± 0.06 x 10^3/µl; HCT [5, 6]: 51.6 ± 1.5* %; HGB [5, 6]: 13.4 ± 0.4** g/dL; Lympho-cytes [5, 6]: 6.2 ± 1.6 x 10^3/µl; Mono-cytes [5, 6]: 0.04 ± 0.01 x 10^3/µl; Neutro-phils [5, 6]: 0.78 ± 0.18 x 10^3/µl; Platelets [5, 6]: 2244 ± 85** x 10^3/µl; Platelets MPV [5, 6]: 6.9 ± 0.2** fL; RBC [5, 6]: 9.65 ± 0.27* x 10^6/µl; Retic [5, 6]: 803 ± 18** x 10^9/L; WBC [5, 6]: 7.4 ± 1.7 x 10^3/µl; Baso-phils [5, 7]: 0.04 ± 0.01 x 10^3/µl; Eosino-phils [5, 7]: 0.06 ± 0.03 * x 10^3/µl; HCT [5, 7]: 50.3 ± 0.6** %; HGB [5, 7]: 13.0 ± 0.1** g/dL; Lympho-cytes [5, 7]: 4.7 ± 1.5** x 10^3/µl; Mono-cytes [5, 7]: 0.05 ± 0.01 x 10^3/µl; Neutro-phils [5, 7]: 0.86 ± 0.34 x 10^3/µl; Platelets [5, 7]: 2376 ± 171 ** x 10^3/µl; Platelets MPV [5, 7]: 6.8 ± 0.1** fL; RBC [5, 7]: 9.41 ± 0.13** x 10^6/µl; Retic [5, 7]: 911 ± 64** x 10^9/L; WBC [5, 7]: 5.9 ± 1.9* x 10^3/µl; Baso-phils ([5]; 3 days): 0.03 ± 0.03 x 10^3/µl; Eosino-phils ([5]; 3 days): 0.26 ± 0.09 x 10^3/µl; HCT ([5]; 3 days): 50.4 ± 0.8** %; HGB ([5]; 3 days): 13.7 ± 0.2** g/dL; Lympho-cytes ([5]; 3 days): 4.2 ± 0.9** x 10^3/µl; Mono-cytes ([5]; 3 days): 0.05 ± 0.02 x 10^3/µl; Neutro-phils ([5]; 3 days): 0.61 ± 0.07 x 10^3/µl; Platelets ([5]; 3 days): 1611 ± 85** x 10^3/µl; Platelets MPV ([5]; 3 days): 6.6 ± 0.4 fL; RBC ([5]; 3 days): 9.29 ± 0.04** x 10^6/µl; Retic ([5]; 3 days): 43 ± 6** x 10^9/L; WBC ([5]; 3 days): 5.3 ± 1.0** x 10^3/µl; Baso-phils ([5]; 6 days): 0.02 ± 0.01** x 10^3/µl; Eosino-phils ([5]; 6 days): 0.19 ± 0.06 x 10^3/µl; HCT ([5]; 6 days): 48.7 ± 2.5** %; HGB ([5]; 6 days): 12.9 ± 0.5** g/dL; Lympho-cytes ([5]; 6 days): 3.5 ± 0.4** x 10^3/µl; Mono-cytes ([5]; 6 days): 0.05 ± 0.02 x 10^3/µl; Neutro-phils ([5]; 6 days): 0.60 ± 0.16 x 10^3/µl; Platelets ([5]; 6 days): 2534 ± 88** x 10^3/µl; Platelets MPV ([5]; 6 days): 6.1 ± 0.2** fL; RBC ([5]; 6 days): 8.80 ± 0.39** x 10^6/µl; Retic ([5]; 6 days): 162 ± 24** x 10^9/L; WBC ([5]; 6 days): 4.6 ± 0.6** x 10^3/µl
